{
  "source": "patent US20110160147A1",
  "about": "“NOVEL DUAL TARGETING A[…]” (priority 2008, published 2011)",
  "key": {"[1]": {"test_system": "A2780 ovarian carcinoma cells", "assay_type": "cell-based, human", "conditions": "A2780, 1 h of treatment; read-out: IC50 ± SD, antiadhesive effect to vitronectin", "experimental": "A2780 human ovarian carcinoma and PC3 prostate carcinoma cells were grown in medium culture RPMI 1640 containing 10% fetal bovine serum and 50 μg/ml gentamycin sulfate. Cells were maintained in a 37° C. incubator with saturated humidity and an atmosphere of 95% air and 5% CO2. A2780 tumour cell line expresses high levels of αvβ5 integrin, and PC3 low levels of both integrins.\nIn 96-well tissue culture plates, 50 μl/well of a solution of vitronectin (5 μg/ml) were added for 2 h at room temperature. The solutions were removed upsetting the plates. 50 μl/well of a solution 1% BSA were added for 1 h at RT. The plates were washed by addition of 100 μl/well of medium culture RPMI 1640 without fetal calf serum (FCS). The washing was repeated twice. The molecules were added at different concentrations in the range between 0.039 μM and 20 μM. The solutions were prepared by dilution 1:2 in medium culture without FCS. Tumour cells in the flasks were washed in saline solution before to be detached by scraper, by the addition of 5 ml of medium culture without FCS and 1% BSA. Tumour cells were counted after resuspension and added at an appropriate cellular density (40000-50000 cells/well). The plates were incubated for 1 h at 37° C. in humidified incubator with 5% CO2. Then, the solutions were removed upsetting the plates and washed once with 200 μl/well of PBS with Ca^2+ e Mg^2+. Tumour cells were fixed with 100 μl of a solution 4% paraformaldehyde in 0.2 M Sorensen phosphate buffer pH 7.2-7.4 for 10 min at RT The plates were upset and 100 μl of 1% Toluidine Blu solution were added for 10 min at RT The plates were washed twice by immersion in bi-distilled water and then dried at 60° C. in thermostat incubator (Kottermann). 100 μl/well of 1% SDS were added. The plates were kept under stirring for 20 min at RT and were then evaluated by Victor 1420 multilabel counter (Wallac) at 600 nm.\nThe IC50 value as parameter to measure the inhibiting effect of the molecules on tumour cell adhesion to vitronectin was evaluated using “ALLFIT” computer program."}, "[2]": {"test_system": "A2780 ovarian carcinoma cells", "test": "Cytotoxicity, sulphorodamine B test (A2780)", "assay_type": "cell-based, human", "conditions": "A2780, 72 h of treatment; read-out: IC50 ± SD, cytotoxicity", "experimental": "To evaluate the effect of the compound on survival cells, the sulphorodamine B test was used. To measure the effects of the compounds on cell growth, PC3 human prostate carcinoma and A2780 human ovarian carcinoma cells were used. A2780 and PC3 tumour cells were grown RPMI 1640 containing 10% fetal bovine serum (GIBCO).\nTumour cells were seeded in 96-well tissue culture plates at approximately 10% confluence and were allowed to attach and recover for at least 24 h. Varying concentrations of the drugs were then added to each well to calculate their IC50 value (the concentration which inhibits the 50% of cell survival). The plates were incubated at 37° C. for 72 h. At the end of the treatment, the plates were washed by removal of the supernatant and addition of PBS 3 times. 200 μl PBS and 50 μl of cold 80% trichloroacetic acid (TCA) were added. The plates were incubated on ice for at least 1 h. TCA was removed and the plates were washed 3 times by immersion in distilled-water and dried on paper and at 40° C. for 5 min. Then 200 μl of 0.4% sulphorodamine B in 1% acetic acid were added. The plates were incubated at RT for further 30 min. Sulphorodamine B was removed, the plates were washed by immersion in 1% acetic acid 3 times, then they were dried on paper and at 40° C. for 5 min. Then 200 μl Tris 10 mM were added, the plates were kept under stirring for 20 min. The cell survival was determined by means of optical density using a Multiskan spectrofluorimeter at 540 nm. The amount of cells killed was calculated as the percentage decrease in sulphorodamine B binding compared with control cultures.\nThe IC50 values were calculated with the “ALLFIT” program."}, "[3]": {"test": "Antitumour activity against A2780 ovarian carcinoma xenografted in CD1 nude mice", "assay_type": "in vivo", "conditions": "CD1 nude, mouse, in vivo, sc; s.c. qdx5/wx2w; read-out: approximate maximum tolerate dose (MTD)", "experimental": "(§1) Tumour cell lines (3×10^6) were injected s.c. into the right flank of CD1 nude mice (Harlan). Each experimental group included 10 mice. Tumours were implanted on day 0, and tumour growth was followed by biweekly measurements of tumour diameters with a Vernier caliper. Tumour volume was calculated according to the formula: TV (mm^3)=d^2×D/2, where d and D are the shortest diameter and the longest diameter respectively. Drug treatment started when tumours were just measurable on day 3 after tumour inoculation. The drug was administered subcutaneously for two weeks according to the schedule qd×5/w×2w at different doses in a volume of 10 ml/kg. Control mice were treated with the vehicle (10% DMSO).\n(§2) Drug efficacy was assessed as described below. • a) TVI in drug-treated versus control mice was expressed as follows: TVI (%)=100−(mean TV treated/mean TV control)×100. TVI was evaluated 6 days after the last treatment, this timing corresponding to the time necessary to observe a doubling of tumour volume in the control mice. • b) Log cell kill (LCK) was calculated using the following formula: LCK=(T−C)/3.32×DT where T and C are the mean time (in days) required for treated (T) and control (C) tumours, respectively to reach a determined volume, and DT is the time necessary to observe a doubling of tumour volume in the control mice. • c) CR was defined as disappearance of the tumour lasting at least 6 days after the end of treatments. Tumours that had not regrown by the end of the experiment were considered “cured”.\n(§3) Toxic effects of drug treatment were assessed as described below. • a) BWL was calculated as follows: BWL (%)=100−(mean body weight day x/mean body weight day 1)×100, where day 1 is the first day of treatment, and day x is any day thereafter. Mice were weighed every day throughout the period of treatment. • b) Lethal toxicity was defined as any death in treated groups occurring before any control death. Mice were inspected daily for mortality.\n(§4) TI (therapeutic index) was calculated as ratio MTD/ED80."}, "[4]": {"test_system": "A2780 ovarian ca. xenografted in CD1 nude mice", "test": "Antitumour activity against A2780 ovarian carcinoma xenografted in CD1 nude mice", "assay_type": "in vivo", "conditions": "for TVI % versus control mice: 6 days after last treatment", "experimental": "as §1, §2, §3, §4"}, "[5]": {"conditions": "0.92 mg/10 ml/kg s.c. qdx5/wx2w"}, "[6]": {"conditions": "2.77 mg/10 ml/kg s.c. qdx5/wx2w"}},
  "note": "“And” between values parts separate entries of the source, which are not always exact repeats. Equal entries are not always repeated. Where two headings read alike, the source gives them in different places.",
  "data": [
    {"smiles": "CC[C@@]1(O)C(=O)OCc2c1cc1n(c2=O)Cc2c-1nc1ccccc1c2C=NOCCNC(=O)OCc1ccc(NC(=O)[C@H](CCCNC(N)=O)NC(=O)[C@H](C)NC(=O)COCCOCCOCC(=O)NCc2ccc(C[C@@H]3NC(=O)[C@@H](Cc4ccccc4)NC(=O)[C@H](CC(=O)O)NC(=O)CNC(=O)[C@H](CCCNC(=N)N)NC3=O)cc2)cc1", "note": "[ST3833]", "values": [
      {"measurement": "IC50", "setting": "[1]", "result": "900 ± 50", "unit": "nM"},
      {"measurement": "IC50", "setting": "[2]", "result": "95 ± 20", "unit": "nM"},
      {"measurement": "MTD at 2 weeks", "setting": "[3]", "result": "~25", "unit": "mg/kg"},
      {"measurement": "BWL % (maximum body weight loss)", "setting": "[4]; [5]", "result": 0, "unit": "%"},
      {"measurement": "CR (disappearance of tumour)", "setting": "[4]; [5]", "result": "3/10"},
      {"measurement": "Cured (mice without lesion 90 days after tumour injection)", "setting": "[4]; [5]", "result": "3/10"},
      {"measurement": "LCK (log cell kill)", "setting": "[4]; [5]", "result": 0.9},
      {"measurement": "Lethal toxicity (dead/treated animals)", "setting": "[4]; [5]", "result": "0/10"},
      {"measurement": "TVI % versus control mice", "setting": "[4]; [5]", "result": 60, "unit": "%"},
      {"measurement": "cured mice", "setting": "[4]; 0.92 mg/kg", "result": 30, "unit": "%"},
      {"measurement": "BWL % (maximum body weight loss)", "setting": "[4]; [6]", "result": 0, "unit": "%"},
      {"measurement": "CR (disappearance of tumour)", "setting": "[4]; [6]", "result": "3/10"},
      {"measurement": "Cured (mice without lesion 90 days after tumour injection)", "setting": "[4]; [6]", "result": "3/10"},
      {"measurement": "LCK (log cell kill)", "setting": "[4]; [6]", "result": 1.1},
      {"measurement": "Lethal toxicity (dead/treated animals)", "setting": "[4]; [6]", "result": "0/10"},
      {"measurement": "TVI % versus control mice", "setting": "[4]; [6]", "result": 75, "unit": "%"},
      {"measurement": "cured mice", "setting": "[4]; 2.77 mg/kg", "result": 30, "unit": "%"},
      {"measurement": "BWL % (maximum body weight loss)", "setting": "[4]; 8.3 mg/10 ml/kg s.c. qdx5/wx2w", "result": 0, "unit": "%"},
      {"measurement": "CR (disappearance of tumour)", "setting": "[4]; 8.3 mg/10 ml/kg s.c. qdx5/wx2w", "result": "5/10"},
      {"measurement": "Cured (mice without lesion 90 days after tumour injection)", "setting": "[4]; 8.3 mg/10 ml/kg s.c. qdx5/wx2w", "result": "4/10"},
      {"measurement": "LCK (log cell kill)", "setting": "[4]; 8.3 mg/10 ml/kg s.c. qdx5/wx2w", "result": 2.7},
      {"measurement": "Lethal toxicity (dead/treated animals)", "setting": "[4]; 8.3 mg/10 ml/kg s.c. qdx5/wx2w", "result": "0/10"},
      {"measurement": "TVI % versus control mice", "setting": "[4]; 8.3 mg/10 ml/kg s.c. qdx5/wx2w", "result": 100, "unit": "%"},
      {"measurement": "BWL % (maximum body weight loss)", "setting": "[4]; 25 mg/10 ml/kg s.c. qdx5/wx2w", "result": "25% and 24%"},
      {"measurement": "CR (disappearance of tumour)", "setting": "[4]; 25 mg/10 ml/kg s.c. qdx5/wx2w", "result": "9/9"},
      {"measurement": "Cured (mice without lesion 90 days after tumour injection)", "setting": "[4]; 25 mg/10 ml/kg s.c. qdx5/wx2w", "result": "9/9"},
      {"measurement": "LCK (log cell kill)", "setting": "[4]; 25 mg/10 ml/kg s.c. qdx5/wx2w", "result": ">11.4"},
      {"measurement": "Lethal toxicity (dead/treated animals)", "setting": "[4]; 25 mg/10 ml/kg s.c. qdx5/wx2w", "result": "1/10"},
      {"measurement": "TVI % versus control mice", "setting": "[4]; 25 mg/10 ml/kg s.c. qdx5/wx2w", "result": 100, "unit": "%"},
      {"measurement": "cured mice", "setting": "[4]; 1/3 MTD (8.3 mg/kg)", "result": 50, "unit": "%"},
      {"measurement": "cured mice at day 90", "setting": "[4]; at the MTD (25 mg/kg s.c.)", "result": 100, "unit": "%"}
    ]}
  ]
}
